Read-outs that look alike come from different tables or passages of the source.
Legend:
DYRK1A = DYRK1A (Homo sapiens (Human), UniProt Q13627); test: DYRK1A kinase assay (HotSpot, Reaction Biology); format: biochemical; conditions: purified recombinant kinase, 10 μM ATP, room temperature 120 min
DYRK1B = DYRK1B (Homo sapiens (Human), UniProt Q9Y463); test: DYRK1B kinase assay (HotSpot, Reaction Biology); format: biochemical
[1] = purified recombinant kinase, 10 μM ATP, room temperature 120 min

Chain of DYRK1B (Q9Y463 whole entry): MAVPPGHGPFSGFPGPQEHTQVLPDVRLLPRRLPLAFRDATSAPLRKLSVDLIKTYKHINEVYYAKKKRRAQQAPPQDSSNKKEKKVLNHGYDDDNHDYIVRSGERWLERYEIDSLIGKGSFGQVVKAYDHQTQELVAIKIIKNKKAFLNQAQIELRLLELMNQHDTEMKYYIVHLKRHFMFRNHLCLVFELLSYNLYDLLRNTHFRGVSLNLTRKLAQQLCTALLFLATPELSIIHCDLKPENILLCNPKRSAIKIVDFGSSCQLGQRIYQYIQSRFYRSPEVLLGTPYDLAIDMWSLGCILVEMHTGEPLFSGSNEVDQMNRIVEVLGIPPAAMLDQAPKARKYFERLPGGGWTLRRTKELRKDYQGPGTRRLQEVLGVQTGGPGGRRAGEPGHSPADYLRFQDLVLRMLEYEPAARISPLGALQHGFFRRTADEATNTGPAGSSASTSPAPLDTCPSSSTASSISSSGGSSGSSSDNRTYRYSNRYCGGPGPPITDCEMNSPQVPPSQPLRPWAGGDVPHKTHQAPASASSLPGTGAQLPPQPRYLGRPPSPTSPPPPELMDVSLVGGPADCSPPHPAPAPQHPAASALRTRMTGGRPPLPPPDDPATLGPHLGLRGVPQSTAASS

SMILES	IC50 (DYRK1A)	IC50 (DYRK1B; [1])	IC50 (DYRK1B)
CCOC(=N)c1nc2ccc3ncnc(Nc4ccc(Br)cc4F)c3c2s1 [Compound 81, Ethyl 9-(4-bromo-2-fluorophenylamino)thiazolo[5,4-f]quinazoline-2-carbimidate]	33.2 nM	34.4 nM	
CCOC(=N)c1nc2ccc3ncnc(Nc4ccc5c(c4)OCO5)c3c2s1 [Compound 82, Ethyl 9-(benzo[d][1,3]dioxol-5-ylamino)thiazolo[5,4-j]quinazoline-2-carbimidate]	6.02 nM	7.72 nM	
CC(C)OC(=N)c1nc2ccc3ncnc(Nc4ccc5c(c4)OCO5)c3c2s1 [Compound 85, isopropyl 9-(benzo[d][1,3]dioxol-5-ylamino)thiazolo[5,4-f]quinazoline-2-carbimidate]	125 nM		218 nM
CCCCOC(=N)c1nc2ccc3ncnc(Nc4ccc(Cl)cc4Cl)c3c2s1 [Compound 88, butyl 9-((2,4-dichlorophenyl)amino)thiazolo[5,4-f]quinazoline-2-carbimidate]	47.5 nM	69.4 nM	
COC(=O)c1nc2ccc3ncnc(Nc4ccc(Cl)cc4Cl)c3c2s1 [Compound 89, methyl 9-((2,4-dichlorophenyl)amino)thiazolo[5,4-f]quinazoline-2-carboxylate]	5.1 nM	7.7 nM	
CC(C)(C)CNc1ncnc2ccc(-c3ccc4c(c3)OCO4)cc12 [NCGC-00189310, reference compound]	2.2 nM	20.6 nM	

Now from value to molecule, other results behind:

IC50 (DYRK1A)	IC50 (DYRK1B; [1])	SMILES	IC50 (DYRK1B)
18.3 nM	25.2 nM	COC(=N)c1nc2ccc3ncnc(Nc4ccc(C(F)(F)F)cc4)c3c2s1 [Compound 80, Methyl 9-(4-(trifluoromethyl)phenylamino)thiazolo[5,4-f]quinazoline-2-carbimidate]	
33.9 nM	37.3 nM	N=C(OCc1ccccc1)c1nc2ccc3ncnc(Nc4ccc5c(c4)OCO5)c3c2s1 [Compound 83, benzyl 9-(benzo[d][1,3]dioxol-5-ylamino)thiazolo[5,4-f]quinazoline-2-carbimidate]	
26.2 nM	31.5 nM	NC(=O)c1nc2ccc3ncnc(Nc4ccc(F)cc4Br)c3c2s1 [Compound 86, 9-((2-bromo-4-fluorophenyl)amino)thiazolo[5,4-f]quinazoline-2-carboxamide]	
34.9 nM	43.4 nM	NC(=O)c1nc2ccc3ncnc(Nc4ccc(Cl)cc4Cl)c3c2s1 [Compound 87, 9-((2,4-dichlorophenyl)amino)thiazolo[5,4-f]quinazoline-2-carboxamide]	

From patent publication US9446044B2, “DYRK1 inhibitors and uses thereof” (DIAXONHIT, priority 2011, dated 2016)
